Like-named read-outs stand apart in the source and are kept apart here. Blank lines part the entries; values can stand above or below the compound they belong to.
Experiments:
[1] = Vibrant Absorption Factor (VAF): difference of post- and pre-supplementation nutrient values divided by ATB dosage
Text: Improvement in nutrition can be determined by comparing the nutrient values in serum, RBC, and WBCs post-nutritional supplementation to the nutrient values in serum, RBC, and WBCs pre-nutritional supplementation. Based on the improvement, the change in the nutrient levels can be attributed to the per milligram dosage of the supplemented nutrients. The assessed nutritional change is the “Vibrant Absorption factor (VAF (see Equation (1) below). The VAF can be used to determine the subject's utilization of the supplemented nutrients, as determined by the difference in extracellular and intracellular nutrient values before and after supplementation. Based on the subject's utility or absorption of the nutrients, the dosage amount of the nutrient needed to be supplemented or increased to effect change of the subject's nutrient values into the optimum nutrient zone can be assessed. In various embodiments, the VAF is determined by administering a pre-determined formulation, referred to herein as the Absorption Testing Blend.
Next, the ATB is administered to the individual for a predefined period at step 320a, after which nutrient levels and the genetic nutrient profile are re-evaluated, to obtain the post-supplementation biomarker values at step 330.
This includes determining the VAF based on the difference between post- and pre-supplementation biomarker values, which is divided by the ATB dosage.
The assessed change is called the VAF. The VAF is used to understand how the individual's body is utilizing these nutrients, depending on the difference in extracellular and intracellular nutrient values before and after supplementation. Based on the body's utility or absorption of the nutrients, the amount of nutrients needed to be supplemented to alter the individual's nutrient values into the optimum nutrient zone is understood. The VAF calculations help in determining the appropriate dosages of nutrients required in the ‘customized blend.’

[2] = NutriPro test: serum, RBC and WBC nutrient values before and after ATB / customized blend; type: in vivo, human; details: for Actual Nutrient Value (ANV): before customized blend; for concentration at 3 months: read-out: Follow-up Nutrient Level; for Pre-test biomarker level: before ATB
Text: The method for providing a nutritional supplement for a subject as disclosed herein is based on a comprehensive panel that assesses intracellular and extracellular levels of at least or up to 41 nutrients. […] Blood analysis using the method disclosed herein tests for nutrient levels in serum, red blood cells (RBCs), and white blood cells (WBCs). Additional genetic testing can assess patients' predispositions toward nutrient deficiencies. Based on the blood and genetic analysis results, a subsequent supplementation diet comprising supplements and food sources can be designed and implemented. The subject can be a human subject.
In some embodiments, the detection method is mass spectrometry.
The ‘NutriPro’ test is used to assess serum (extracellular), RBC, and WBC (intracellular) nutrient values along with genetic testing for any predispositions with could be affecting nutrient values in the body. If required, additional tests such as the gut zoomer, cardiovascular health, thyroid test, kidney function test, liver function test, etc, are carried out. FIG. 1 provides a schematic diagram of the process of the NutriPro test from the individual subject to the creation of customized nutritional blends.
The ATB is given to the individual for nutritional supplementation, and blood testing for nutrients in serum, RBC, and WBC is carried out after 3 or 6 months.
The assessed change is called the VAF.
After testing, the individual takes the ATB or the customized blend for the amount of time indicated.

[3] = cited from earlier work
[4] = person one, level: Questionnaire
[5] = human, in vivo, Level: Questionnaire, person, after customized blend
[6] = person one, serum, after customized blend
[7] = person three, serum, after customized blend
[8] = person two, serum, after customized blend

- VAF [1, 4]: 2.7
- Actual Nutrient Value (ANV) ([2]; Level: Questionnaire, person): 84 nmol/mL
- concentration at 3 months [2, 5]: 89.5 µM
- Follow-up Biomarker level ([2]; male, human, in vivo): 234 nmol/mL
- Post-test biomarker level ([2]; male, human, in vivo): 162 nmol/mL
- Pre-test biomarker level [2, 4]: 135 nmol/mL
Compound: N=C(N)NCCC[C@H](N)C(=O)O [Arginine]

Compound: [44Ca] [Calcium, Ca 44]
- UTL ([3]; upper tolerable limit): 2,500 mg/day

- VAF ([1]; person one, serum): 1.08
- Post-test biomarker level ([2]; person one, serum, after ATB): 14.9 nmol/mL
- Follow-up Biomarker level [2, 6]: 42.5 nmol/mL
- Pre-test biomarker level ([2]; person one, serum): 9.5 nmol/mL
- Follow-up Nutrient Level ([2]; person three, level: Questionnaire, after customized blend): 43.2 nmol/mL
- Actual Nutrient Value (ANV) ([2]; person three, level: Questionnaire): 24 nmol/mL
Compound: C[N+](C)(C)CC(O)CC(=O)[O-] (centres unmarked) [Carnitine]
- UTL ([3]; Table 18, person one): 2000 mg/day
- UTL ([3]; Table 20, person three): 2000 mg/day

Compound: C[N+](C)(C)CCO [Choline]
- UTL ([3]; upper tolerable limit): 3,500 mg/day

Compound: [Cr] [Chromium]
- Follow-up Nutrient Level [2, 7]: 0.277 ng/mL
- Actual Nutrient Value (ANV) ([2]; person three, serum): 0.133 ng/mL

- VAF ([1]; person two, serum): 0.76
- Actual Nutrient Value (ANV) ([2]; Level: Questionnaire, person): 19.2 nmol/mL
- concentration at 3 months [2, 5]: 24.9 µM
- Post-test biomarker level ([2]; person two, serum, after ATB): 16.7 nmol/mL
- Follow-up Biomarker level [2, 8]: 43.4 nmol/mL
- Pre-test biomarker level ([2]; person two, serum): 9.1 nmol/mL
Compound: NC(=O)NCCC[C@H](N)C(=O)O [Citrulline]

Compound: COC1=C(OC)C(=O)C(C/C=C(\C)CC/C=C(\C)CC/C=C(\C)CC/C=C(\C)CC/C=C(\C)CC/C=C(\C)CC/C=C(\C)CC/C=C(\C)CC/C=C(\C)CCC=C(C)C)=C(C)C1=O [Coenzyme 10]
- VAF ([1]; person one, serum): 0.024
- VAF ([1]; person two, serum): 0.22
- UTL ([3]; Table 18, person one): 1,200 mg/day
- UTL ([3]; Table 19, person two): 1,200 mg/day
- Post-test biomarker level ([2]; person one, serum, after ATB): 320 ng/mL
- Follow-up Biomarker level [2, 6]: 1800 ng/mL
- Pre-test biomarker level ([2]; person one, serum): 200 ng/mL
- Post-test biomarker level ([2]; person two, serum, after ATB): 1200 ng/mL
- Follow-up Biomarker level [2, 8]: 1880 ng/mL
- Pre-test biomarker level ([2]; person two, serum): 100 ng/mL

Compound: COC1=C(OC)C(=O)C(C/C=C(\C)CC/C=C(\C)CC/C=C(\C)CC/C=C(\C)CC/C=C(\C)CC/C=C(\C)CC/C=C(\C)CC/C=C(\C)CC/C=C(\C)CCC=C(C)C)=C(C)C1=O [Coenzyme Q10]
- UTL ([3]; Table 20, person three): 1,200 mg/day
- Follow-up Nutrient Level [2, 7]: 1990 ng/mL
- Actual Nutrient Value (ANV) ([2]; person three, serum): 100 ng/mL

Compound: [Cu] [Copper, Cu 63]
- UTL ([3]; upper tolerable limit): 10 mg/day

- Follow-up Nutrient Level ([2]; person three, cells, after customized blend, unit not given): 1.2
- Actual Nutrient Value (ANV) ([2]; person three, cells, unit not given): 0.46
Compound: CC/C=C\C/C=C\C/C=C\C/C=C\C/C=C\CCCCCC(=O)O [DPA, docosapentaenoic acid]

Compound: C[N+](C)(C)C[C@H](O)CC(=O)[O-] [Free Carnitine]
- UTL ([3]; upper tolerable limit): 2000 mg/day

Compound: [Fe] [Iron, Fe 56]
- UTL ([3]; upper tolerable limit): 45 mg/day

Compound: CC[C@H](C)[C@H](N)C(=O)O [Isoleucine]
- VAF ([1]; person two, serum): 8.514
- Follow-up Nutrient Level [2, 7]: 144 nmol/mL
- Actual Nutrient Value (ANV) ([2]; person three, serum): 26.2 nmol/mL
- Post-test biomarker level ([2]; person two, serum, after ATB): 44 nmol/mL
- Follow-up Biomarker level [2, 8]: 149 nmol/mL
- Pre-test biomarker level ([2]; person two, serum): 14.2 nmol/mL

- VAF ([1]; person two, serum): 0.9
- Post-test biomarker level ([2]; female, human, in vivo): 67 nmol/mL
- Follow-up Biomarker level [2, 8]: 232 nmol/mL
- Pre-test biomarker level ([2]; person two, serum): 58 nmol/mL
Compound: N=C(N)NCCC[C@H](N)C(=O)O [L-Arginine]

Compound: CC(C)C[C@H](N)C(=O)O [L-Leucine]
- VAF ([1]; person one, serum): 5.429
- Post-test biomarker level ([2]; person one, serum, after ATB): 101 nmol/m
- Follow-up Biomarker level [2, 6]: 222 nmol/m
- Pre-test biomarker level ([2]; person one, serum): 82 nmol/m

Compound: CC(C)[C@H](N)C(=O)O [L-Valine]
- VAF ([1]; person one, serum): 8.75
- Post-test biomarker level ([2]; person one, serum, after ATB): 4.7e+10 nmol/mL
- Follow-up Biomarker level [2, 6]: 322 nmol/mL
- Pre-test biomarker level ([2]; person one, serum): 12 nmol/mL

Compound: CC(C)C[C@H](N)C(=O)O [Leucine]
- Follow-up Nutrient Level [2, 7]: 225 nmol/m
- Actual Nutrient Value (ANV) ([2]; person three, serum): 85 nmol/m

Compound: [24Mg] [Magnesium, Mg 24]
- UTL ([3]; upper tolerable limit): 350 mg/day

Compound: [Mg] [Magnesium]
- VAF ([1]; person one, serum): 0.012
- UTL ([3]; Table 18, person one): 350 mg/day
- Post-test biomarker level ([2]; person one, serum, after ATB): 17000 ng/mL
- Follow-up Biomarker level [2, 6]: 25200 ng/mL
- Pre-test biomarker level ([2]; person one, serum): 5000 ng/mL

Compound: [Mn] [Manganese, Mn 55]
- UTL ([3]; upper tolerable limit): 11 mg/day

Compound: [Mn+2] [Manganese]
- VAF ([1]; person two, cells): 7.684
- VAF ([1]; person two, serum): 0.2316
- UTL ([3]; Table 19, person two): 11 mg/day
- Post-test biomarker level ([2]; person two, cells, after ATB): 7.8 pg/MM WBC
- Follow-up Biomarker level ([2]; person two, cells, after customized blend): 67.5 pg/MM WBC
- Pre-test biomarker level ([2]; person two, cells): 0.5 pg/MM WBC
- Post-test biomarker level ([2]; person two, serum, after ATB): 0.62 ng/mL
- Follow-up Biomarker level [2, 8]: 2.1 ng/mL
- Pre-test biomarker level ([2]; person two, serum): 0.4 ng/mL

- VAF ([1]; person two, serum): 0.55
- Post-test biomarker level ([2]; female, human, in vivo): 12.9 nmol/mL
- Follow-up Biomarker level [2, 8]: 47.5 nmol/mL
- Pre-test biomarker level ([2]; person two, serum): 7.4 nmol/mL
Compound: O[C@H]1[C@H](O)[C@@H](O)[C@H](O)[C@@H](O)[C@H]1O [Myo-Inositol]

Compound: [76Se] [Selenium, Se 76]
- UTL ([3]; upper tolerable limit): 0.4 mg/day

Compound: N[C@@H](CO)C(=O)O [Serine]
- UTL ([3]; Table 20, person three): 12000 mg/day
- Follow-up Nutrient Level [2, 7]: 131 nmol/mL
- Actual Nutrient Value (ANV) ([2]; person three, serum): 62 nmol/mL

Compound: [Na] [Sodium]
- UTL ([3]; upper tolerable limit): 2,300 mg/day

Compound: CC(C)[C@H](N)C(=O)O [Valine]
- Follow-up Nutrient Level [2, 7]: 332 nmol/mL
- Actual Nutrient Value (ANV) ([2]; person three, serum): 26 nmol/mL

Compound: CC1=C(/C=C/C(C)=C/C=C/C(C)=C/CO)C(C)(C)CCC1 [Vitamin A (Retinol)]
- UTL ([3]; upper tolerable limit): 10,000 IU/day

Compound: Cc1cc2nc3c(=O)[nH]c(=O)nc-3n(C[C@H](O)[C@H](O)[C@H](O)CO)c2cc1C [Vitamin B2]
- Follow-up Nutrient Level [2, 7]: 231 ng/mL
- Actual Nutrient Value (ANV) ([2]; person three, serum): 5.5 ng/mL

Compound: O=C(O)c1cccnc1 [Vitamin B3]
- VAF ([1]; person one, serum): 0.7
- UTL ([3]; Table 18, person one): 35 mg/day
- Post-test biomarker level ([2]; person one, serum, after ATB): 3.9 ng/mL
- Follow-up Biomarker level [2, 6]: 70.1 ng/mL
- Pre-test biomarker level ([2]; person one, serum): 1.1 ng/mL

Compound: O=C1O[C@H]([C@@H](O)CO)C(O)=C1O [Vitamin C (L-Ascorbic acid)]
- UTL ([3]; upper tolerable limit): 2000 mg/day

Compound: Cc1c(C)c2c(c(C)c1O)CC[C@@](C)(CCC[C@H](C)CCC[C@H](C)CCCC(C)C)O2 [Vitamin E (alpha-tocopherol)]
- UTL ([3]; upper tolerable limit): 1,100 IU/day

Compound: CC1=C(C/C=C(\C)CCC[C@H](C)CCC[C@H](C)CCCC(C)C)C(=O)c2ccccc2C1=O [Vitamin K1]
- VAF ([1]; person two, serum): 0.081
- Follow-up Nutrient Level [2, 7]: 12.3 ng/mL
- Actual Nutrient Value (ANV) ([2]; person three, serum): 0.07 ng/mL
- Post-test biomarker level ([2]; person two, serum, after ATB): 1.7 ng/mL
- Follow-up Biomarker level [2, 8]: 12.4 ng/mL
- Pre-test biomarker level ([2]; person two, serum): 0.08 ng/mL

Compound: [Zn] [Zinc, Zn 67]
- UTL ([3]; upper tolerable limit): 40 mg/day

- VAF ([1]; person one, cells): 3.75
- VAF ([1]; person one, serum): 250
- VAF ([1]; person two, serum): 132.5
- Post-test biomarker level ([2]; person one, cells, after ATB, unit not given): 1.7
- Follow-up Biomarker level ([2]; person one, cells, after customized blend, unit not given): 10.3
- Pre-test biomarker level ([2]; person one, cells, unit not given): 0.2
- Post-test biomarker level ([2]; person one, serum, after ATB): 0.205 ng/mL
- Follow-up Biomarker level [2, 6]: 1.17 ng/mL
- Pre-test biomarker level ([2]; person one, serum): 0.105 ng/mL
- Post-test biomarker level ([2]; person two, serum, after ATB): 0.147 ng/mL
- Follow-up Biomarker level [2, 8]: 1.122 ng/mL
- Pre-test biomarker level ([2]; person two, serum): 0.094 ng/mL
Compound: Vitamin B12

- VAF ([1]; person one, serum): 0.0007
- Post-test biomarker level ([2]; person one, serum, after ATB): 0.017 ng/mL
- Follow-up Biomarker level [2, 6]: 0.1017 ng/mL
- Pre-test biomarker level ([2]; person one, serum): 0.01 ng/mL
Compound: Vitamin K2

Source: patent publication US20260169011A1, “METHODS AND COMPOSITIONS FOR PROVIDING CUSTOMIZED NUTRITIONAL SUPPLEMENTS” (Vibrant Holdings LLC, priority 2023, published 2026)
